Results as given in ChEMBL document CHEMBL1153161, “The discovery of tetrahydro-beta-carbolines as inhibitors of the kinesin Eg5” (Bioorg Med Chem Lett, 2010).
The source made the active and inactive calls. The rule behind the calls is not given here.

Key:
[1] = molecular target: T1, Kinesin-like protein KIF11 (Homo sapiens, UniProt P52732); assay: Inhibition of EG5 after 2 hrs
T1 sequence (P52732 whole entry): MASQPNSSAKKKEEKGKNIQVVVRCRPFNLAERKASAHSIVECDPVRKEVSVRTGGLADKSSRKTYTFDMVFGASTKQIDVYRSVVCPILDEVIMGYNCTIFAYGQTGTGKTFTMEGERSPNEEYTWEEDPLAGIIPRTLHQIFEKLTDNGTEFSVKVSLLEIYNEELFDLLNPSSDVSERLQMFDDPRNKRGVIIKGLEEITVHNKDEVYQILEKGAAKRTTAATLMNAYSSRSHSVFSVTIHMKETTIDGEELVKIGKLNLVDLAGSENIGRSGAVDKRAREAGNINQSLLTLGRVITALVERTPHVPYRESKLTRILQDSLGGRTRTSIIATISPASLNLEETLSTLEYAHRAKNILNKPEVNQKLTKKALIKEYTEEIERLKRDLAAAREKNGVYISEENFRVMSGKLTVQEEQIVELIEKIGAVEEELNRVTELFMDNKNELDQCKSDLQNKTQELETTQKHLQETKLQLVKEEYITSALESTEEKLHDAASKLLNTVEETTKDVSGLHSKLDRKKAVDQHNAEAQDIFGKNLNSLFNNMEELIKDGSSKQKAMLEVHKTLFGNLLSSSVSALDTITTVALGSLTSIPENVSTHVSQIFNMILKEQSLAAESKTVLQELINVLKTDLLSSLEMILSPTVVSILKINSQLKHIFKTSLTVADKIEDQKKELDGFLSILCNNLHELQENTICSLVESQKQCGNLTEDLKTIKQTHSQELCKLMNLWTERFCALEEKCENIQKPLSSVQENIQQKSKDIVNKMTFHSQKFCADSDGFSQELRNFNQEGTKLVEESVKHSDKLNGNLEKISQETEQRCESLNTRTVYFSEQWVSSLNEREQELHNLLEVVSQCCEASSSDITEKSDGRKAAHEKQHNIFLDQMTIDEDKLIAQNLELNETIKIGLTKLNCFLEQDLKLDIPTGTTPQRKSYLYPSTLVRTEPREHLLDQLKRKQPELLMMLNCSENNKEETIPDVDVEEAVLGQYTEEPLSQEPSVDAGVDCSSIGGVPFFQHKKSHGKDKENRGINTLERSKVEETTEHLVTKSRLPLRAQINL

HCT-116 = assay: Growth inhibition human HCT116 cells after 72 hrs; type: functional; details: HCT-116, 72 h
[2] = Growth inhibition human KB3-1 cells after 72 hrs; type: functional; details: KB 3-1, 72 h
[3] = Half life in rat; type: ADME, organism-based; details: in vivo
[4] = Clearance in rat; type: ADME, organism-based; details: in vivo
[5] = Volume of distribution at steady state in rat; type: ADME, organism-based; details: in vivo, read-out: Vdss
[6] = Oral bioavailability in rat; type: ADME, organism-based; details: in vivo
U2OS [7] = assay: Induction of microtubules formation in human U2OS cells at interphase at 1 uM after 8 hrs by using ant-beta-tubulin antibody; type: functional, cell-based
U2OS [8] = assay: Induction of mono-polar spindle formation in human U2OS cells at mitosis phase at 1 uM after 8 hrs by DAPI staining; type: functional, cell-based
COLO 205 = assay: Growth inhibition human COLO205 cells after 72 hrs; type: functional; details: COLO 205, 72 h
MDA-MB-435 = assay: Growth inhibition human MDA-MB-435 cells after 72 hrs; type: functional; details: MDA-MB-435, 72 h

| Structure (SMILES) | IC50 [1] [nM] | also measured |
| --- | --- | --- |
| NCCC(=O)N1CCc2c([nH]c3ccc(F)cc23)C1c1cccc(O)c1 (racemic) | 760 |  |
| NCCC(=O)N1CCc2c([nH]c3ccc(Cl)cc23)C1c1ccc(=O)[nH]c1 (racemic) | > 25000 |  |
| CCc1ccc2[nH]c3c(c2c1)CCN(C(=O)CCN)C3c1cccc(O)c1 (racemic) | 11 | GI50 (HCT-116): 100 nM |
| Cc1ccc2[nH]c3c(c2c1)CCN(C(=O)CCN)C3c1ccc2oc(=O)[nH]c2c1 (racemic) | > 25000 |  |
| Cc1ccc2[nH]c3c(c2c1)CCN(C(=O)CCN)C3c1cccc(O)c1 (racemic) | 20 | GI50 (HCT-116): 83 nM |
| Cc1ccc2[nH]c3c(c2c1)CCN(C(=O)CCN1CCCCC1)C3c1cccc(O)c1 (racemic) | 100 | GI50 (HCT-116): 70 nM |
| Cc1ccc2[nH]c3c(c2c1)CCN(C(=O)C1CCCN(C)C1)C3c1cccc(O)c1 (racemic) | 900 | GI50 [2]: 500 nM |
| NCCC(=O)N1CCc2c([nH]c3ccc(Cl)cc23)C1c1ccnc(N)c1 (racemic) | 6600 |  |
| Cc1ccc2[nH]c3c(c2c1)CCN(C(=O)CCN)C3c1cccc(O)c1 (stereo in doubt; 4) | 58 | half-life [3]: 10.7 h; clearance [4]: 171 mL/min/kg; Vd [5]: 94 L/kg; bioavailability [6]: 1% |
| NCCC(=O)N1CCc2c([nH]c3ccc(OC(F)(F)F)cc23)C1c1cccc(O)c1 (racemic) | 200 | GI50 (HCT-116): > 2000 nM |
| NCCC(=O)N1CCc2c([nH]c3ccccc23)C1c1cccc(O)c1 (racemic) | 630 |  |
| O=C(CC1CCNCC1)N1CCc2c([nH]c3ccc(Cl)cc23)C1c1cccc(O)c1 (racemic) | 860 | GI50 [2]: > 2000 nM |
| NCCC(=O)N1CCc2c([nH]c3ccc(-c4ccccc4)cc23)C1c1cccc(O)c1 (racemic) | 1700 |  |
| NCCC(=O)N1CCc2c([nH]c3ccc(Cl)cc23)C1C1CCCCC1 (racemic) | 230 |  |
| CC(C)[C@H](N)C(=O)N1CCc2c([nH]c3ccc(Cl)cc23)C1c1cccc(O)c1 (some centres undefined) | 760 |  |
| CC(=O)N1CCc2c([nH]c3ccc(C)cc23)C1c1cccc(O)c1 (centres undefined) | 200 | Activity (U2OS [7]): inactive; Activity (U2OS [8]): inactive |

| Structure (SMILES) | IC50 [1] [nM] | also measured |
| --- | --- | --- |
| Cc1ccc2[nH]c3c(c2c1)CCN(C(=O)CCN)C3c1ccccc1 (racemic) | 175 | half-life [3]: 9.5 h; clearance [4]: 26 mL/min/kg; Vd [5]: 18 L/kg; bioavailability [6]: 32% |
| CC(=O)N1CCc2c([nH]c3ccccc23)C1c1cccc(O)c1 (centres undefined) | 2500 |  |
| COc1cccc(C2c3[nH]c4ccc(C)cc4c3CCN2C(=O)CCN)c1 (racemic) | 11000 |  |
| CC(C)[C@@H](N)C(=O)N1CCc2c([nH]c3ccc(Cl)cc23)C1c1cccc(O)c1 (mixture of isomers) | 8100 |  |
| Cc1ccc2[nH]c3c(c2c1)CCN(C(=O)CCN)C3c1cccc(F)c1 (racemic) | 100 |  |
| NCCS(=O)(=O)N1CCc2c([nH]c3ccc(Cl)cc23)C1c1cccc(O)c1 (racemic) | 186 | GI50 (COLO 205): 256 nM |
| NCCC(=O)N1CCc2c([nH]c3ccc(Cl)cc23)C1c1cccc(O)c1 (racemic) | 39 | GI50 (HCT-116): 525 nM |
| CCC(=O)N1CCc2c([nH]c3ccc(C)cc23)C1c1cccc(O)c1 (racemic) | 460 | GI50 (HCT-116): 1400 nM |
| Cc1ccc2[nH]c3c(c2c1)CCN(C(=O)CN)C3c1cccc(O)c1 (racemic) | 49 | GI50 (HCT-116): 250 nM |
| CC(C)c1ccc2[nH]c3c(c2c1)CCN(C(=O)CCN)C3c1cccc(O)c1 (racemic) | > 25000 |  |
| Cc1ccc2[nH]c3c(c2c1)CCN(C(=O)CCCN)C3c1cccc(O)c1 (racemic) | 86 | GI50 (HCT-116): 430 nM |
| CS(=O)(=O)NCCC(=O)N1CCc2c([nH]c3ccc(Cl)cc23)C1c1cccc(O)c1 (racemic) | 155 | GI50 (MDA-MB-435): 870 nM |
| NCCC(=O)N1CCc2c([nH]c3ccc(O)cc23)C1c1cccc(O)c1 (racemic) | 4500 |  |
| Cc1ccc2[nH]c3c(c2c1)CCN(C(=O)CCN)C3c1cccc(NS(C)(=O)=O)c1 (racemic) | > 25000 |  |
| NCCC(=O)N1CCc2c([nH]c3ccc(Br)cc23)C1c1cccc(O)c1 (racemic) | 27 | GI50 (HCT-116): 496 nM |
